# According to patent publication US20240100065A1, “METHODS FOR TREATING RECEPTOR-INTERACTING PROTEIN KINASE 1-MEDIATED DISEASES” (Genzyme Corporation, priority 2022, published 2024):
# Read-outs that look alike come from different tables or passages of the source.
# What was measured:
# [1] = target: T1, pS166-RIPK1 in human PBMC lysates (Homo sapiens, UniProt Q13546); assay: Inhibition of pS166-RIPK1 in PBMC lysates (peripheral target engagement); assay type: in vivo; conditions: for pS166-RIPK1 percent change from baseline: Day15-T24h
# T1 construct: Human PBMC are a primary cell type that express endogenous RIPK kinase; endogenous in cells; host or cells: human PBMC isolated from blood of healthy participants
# T1 sequence (Q13546 1-671): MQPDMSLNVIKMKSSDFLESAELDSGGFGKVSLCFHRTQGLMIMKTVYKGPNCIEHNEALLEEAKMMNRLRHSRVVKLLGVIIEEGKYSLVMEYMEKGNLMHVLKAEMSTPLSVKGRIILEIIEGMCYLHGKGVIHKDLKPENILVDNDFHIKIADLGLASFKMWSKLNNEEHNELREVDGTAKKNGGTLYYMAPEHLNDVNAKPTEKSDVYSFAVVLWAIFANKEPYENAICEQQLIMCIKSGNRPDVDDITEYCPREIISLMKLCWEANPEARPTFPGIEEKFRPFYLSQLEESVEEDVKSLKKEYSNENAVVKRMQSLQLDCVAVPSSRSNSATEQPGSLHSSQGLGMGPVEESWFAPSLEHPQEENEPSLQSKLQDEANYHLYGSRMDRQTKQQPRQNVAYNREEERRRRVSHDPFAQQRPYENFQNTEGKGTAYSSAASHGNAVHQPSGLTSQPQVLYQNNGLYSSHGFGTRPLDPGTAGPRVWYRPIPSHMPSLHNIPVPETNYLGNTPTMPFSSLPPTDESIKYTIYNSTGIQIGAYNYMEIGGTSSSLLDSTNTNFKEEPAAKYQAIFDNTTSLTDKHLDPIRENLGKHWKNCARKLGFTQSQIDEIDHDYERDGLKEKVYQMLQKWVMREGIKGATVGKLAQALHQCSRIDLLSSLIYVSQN
# Description: Activity of RIPK1 when stimulated can be detected by an increase in autophosphorylation at serine 166 in the RIPK1 protein. Human PBMC are a primary cell type that express endogenous RIPK kinase. Therefore, the ability of Compound 1 to inhibit RIPK1 kinase activity, as measured by the inhibition of pS166-RIPK1 in prepared PBMC lysates isolated from blood samples, was investigated to assess the peripheral target engagement; pS166-RIPK1 levels in human PBMC lysates and percentage of change from baseline were calculated. In Part 1a study, six blood samples (at pre-dose, at 1, 3, 5, 8 hours on Day 1, and at 24 hours on Day 2) for pS166-RIPK1 level were collected per participant. In Part 2 study, blood samples were collected at timepoint (predose/baseline, D7 and D14 T0 (prior to dosing), at the followings timepoints at D14: T1h, T3H, T6H, T8h, then at D15/T24H and D16/T48H. Interquartile range (IQR: Q1-Q3) and geometric mean were added to the usual descriptive statistics.
# Levels of pS166-RIPK1 and percentage of change from baseline were summarized descriptively by dose level group and time point. PD population includes participants included in the safety population with no major or critical deviations related to IMP and/or pharmacodynamic (PD) measurements, for whom the PD data are considered sufficient and interpretable will be included in the pharmacodynamic population. Scatterplots were provided for pS166-RIPK1 data versus PK plasma concentration in the PK/PD population. For each participant, the percent change compared to their baseline was evaluated at multiple timepoints up to 24 hours in Part 1a and up to 48 hours in Part 2.
# The amount of phosphorylation at serine 166 in RIPK1 protein (pS166-RIPK1) was measured in PBMC lysates prepared from blood samples. Variability in baseline values between individuals was observed across the treatment groups. For each participant, the percent change compared to their baseline was evaluated at multiple timepoints. A negative value for percent change indicates an inhibition of phosphorylation of RIPK1 at-serine166 (pS166-RIPK1).
# [2] = system: CYP3A4; assay: Plasma 4β-hydroxycholesterol Day 14/Day 1 ratio (CYP3A4 induction); assay type: in vivo, human; conditions: repeated doses up to 20 mg BID, 14 days
# Description: The plasma 4β-hydroxycholesterol on Day 14 versus Day 1 pre-dose concentration ratios were calculated to evaluate the potential for CYP3A4 enzyme induction by Compound 1 after repeated doses in Part 2.
# PK population included all participants exposed to Compound 1 with no major or critical deviations related to Compound 1 and for whom PK data were considered sufficient and interpretable. PK parameters were summarized by descriptive statistics for each dose level group. Distribution of Tmax values was represented by histogram plots for each dose level group. In Part 1a, dose proportionality was assessed using a linear model on Cmax, AUClast and AUC. […] Steady state was assessed on Ctrough using a non-linear model. Accumulation was assessed using a linear model on log-transformed accumulation ratio. Dose proportionality was assessed using a power model on Cmax and AUCtau on Day 1 and Day 14, separately. […] In Part 1b, CSF concentration was described by dose level group and CSF to plasma unbound concentration ratios calculated were described in the same way. 4β-hydroxycholesterol on Day 14 versus Day 1 pre-dose concentration ratios were summarized using descriptive statistics by dose level group and point estimates with 90% confidence interval (90% CI) for the geometric mean of the log-transformed Day14/Day1 ratio was calculated in Part 2. […]
compound,measurement,setting,value
"CC(C)(C(=O)N1CCOc2c(C#N)cncc2C1)C(F)F [Compound 1, 4-(3,3-difluoro-2,2-dimethyl-propanoyl)-3,5-dihydro-2H-pyrido[3,4-f] [1,4]oxazepine-9-carbonitrile]",Median inhibition of pS166-RIPK1,"[1]; Part 1a 20 mg, 1 hr post dose",90.43%
same,"Median inhibition of pS166-RIPK1, peak","[1]; Part 1a 20 mg, 5 hrs",96.63%
same,"Median inhibition of pS166-RIPK1, maintained","[1]; Part 1a 20 mg, over 24 hours",greater than 94%
same,Peak median inhibition of pS166-RIPK1,"[1]; Part 1a 30 mg, 3 hr, one replicate",91.48%
same,Median inhibition of pS166-RIPK1,"[1]; Part 1a 30 mg, 24 hours post dose, one replicate",80.16%
same,Peak median inhibition of pS166-RIPK1,"[1]; Part 1a 40 mg, 1 hr post dose, 4 participants",86.69%
same,Median inhibition of pS166-RIPK1,"[1]; Part 1a, all dose groups (10, 20, 30, 40 mg), 1 hour up to 5 hours post dose",greater than 80%
same,pS166-RIPK1 percent change from baseline,"[1]; Part 2, 15 mg BID",−80.29%
same,pS166-RIPK1 percent change from baseline,"[1]; Part 2, 20 mg BID",−97.76%
same,Inhibition of pS166-RIPK1,"[1]; Part 2, all dose level groups (10 mg QD to 20 mg BID), Ctrough Day 7 up to 24 hours post-last dosing",~90%
same,Emax at 10 mg,"[1]; Part 2 Day 14, 10 mg QD, 6 hours post-last morning dose, n=5, read-out: Median inhibition of pS166-RIPK1, maximal effect",99%
same,Emax at 15 mg,"[1]; Part 2 Day 14, 15 mg BID, 6 hours post-last morning dose, n=7, read-out: Median inhibition of pS166-RIPK1, maximal effect",92.8%
same,Emax at 20 mg,"[1]; Part 2 Day 14, 20 mg BID, 8 hours post-last morning dose, n=3, read-out: Median inhibition of pS166-RIPK1, maximal effect",99.2%
same,Emax at 20 mg,"[1]; Part 2 Day 14, 20 mg QD, 6 hours post-last morning dose, n=4, read-out: Median inhibition of pS166-RIPK1, maximal effect",96.5%
same,EC90,[1]; in vivo in PBMC,38 nM
same,Potential for CYP3A4 induction,[2],no potential for CYP3A4 induction
